These results are taken from patent publication US20240317762A1, “PHTHALAZINONE-BASED PARP-1 INHIBITORS” (Oregon Health & Science University, priority 2021, published 2024).

In one assay the target is D770A PARP-1 (Homo sapiens, UniProt P09874, D770A). The experiment in a line: fluorescence polarization DNA competition and affinity assays, D770A mutant. It counts as binding. On the procedure: FIG. 4B) Helical domain (pink cartoon) movement observed during the simulation, the red arrows indicate length and direction of movement. FIG. 4C) The residue-residue distance observed between the Ca atoms R878-D770 and Y889-V758, the increased distance sampling corresponds to the helical domain movement. FIG. 4D) PARP-1 WT, D770A, or R878A (40 nM) was incubated with a dumbbell DNA probe carrying an internal FAM group and a central nick at 20 nM with or without compound (25 μM) for 30 minutes. An unlabeled competitor was added and the decrease in fluorescence polarization was measured across time. FIG. 4E) The Kd of PARP-1 WT, D770A, or R878A for a DNA dumbbell probe containing a central nick (5 nM) was measured in a fluorescence polarization assay with and without inhibitor (5 μM). Error bars represent Standard Error of the Mean (SEM) (n=3).
Chain of D770A PARP-1 (P09874 whole entry D770A, the tested form may be a part): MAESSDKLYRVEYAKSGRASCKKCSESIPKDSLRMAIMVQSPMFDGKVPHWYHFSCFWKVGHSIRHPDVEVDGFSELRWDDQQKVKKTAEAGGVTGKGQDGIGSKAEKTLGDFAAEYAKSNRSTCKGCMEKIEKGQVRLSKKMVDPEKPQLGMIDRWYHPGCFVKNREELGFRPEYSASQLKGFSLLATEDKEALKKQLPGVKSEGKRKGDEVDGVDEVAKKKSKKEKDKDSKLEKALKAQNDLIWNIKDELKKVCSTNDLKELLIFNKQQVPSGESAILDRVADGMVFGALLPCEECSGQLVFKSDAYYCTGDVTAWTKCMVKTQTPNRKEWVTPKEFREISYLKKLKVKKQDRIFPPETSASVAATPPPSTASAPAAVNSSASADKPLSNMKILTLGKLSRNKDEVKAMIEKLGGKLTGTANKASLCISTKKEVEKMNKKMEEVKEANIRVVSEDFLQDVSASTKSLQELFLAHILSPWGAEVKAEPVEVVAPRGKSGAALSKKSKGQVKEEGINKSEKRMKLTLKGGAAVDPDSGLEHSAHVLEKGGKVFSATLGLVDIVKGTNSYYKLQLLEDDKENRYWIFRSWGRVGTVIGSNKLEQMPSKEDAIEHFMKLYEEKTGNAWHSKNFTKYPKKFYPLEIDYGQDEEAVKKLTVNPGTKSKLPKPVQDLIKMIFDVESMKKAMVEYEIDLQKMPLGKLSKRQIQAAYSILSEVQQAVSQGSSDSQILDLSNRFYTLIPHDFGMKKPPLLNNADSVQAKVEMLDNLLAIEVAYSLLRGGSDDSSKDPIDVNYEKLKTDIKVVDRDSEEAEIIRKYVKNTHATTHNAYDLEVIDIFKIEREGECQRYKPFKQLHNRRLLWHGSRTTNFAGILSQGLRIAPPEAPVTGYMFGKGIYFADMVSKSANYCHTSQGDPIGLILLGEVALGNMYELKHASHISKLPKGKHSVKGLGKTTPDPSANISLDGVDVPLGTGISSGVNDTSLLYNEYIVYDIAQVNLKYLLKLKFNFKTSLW
Background: Fluorescence polarisation rises when a labelled molecule tumbles more slowly, as on binding a larger partner.

Assay [1] concerns pan-nuclear γH2AX in HEK 293T cells. The experiment in a line: γH2AX immunofluorescence. It counts as cell-based, human. The method, then:
HEK 293T or HEK 293 PARP-1 KO cells were seeded onto poly-d-lysine treated glass coverslips and treated with indicated concentrations of inhibitors for 18 hours. Cells were then washed with 1×PBS and fixed using 4% Sucrose/4% Paraformaldehyde in PBS for 20 minutes. After three washes in 1×PBS, cells were permeabilized in 0.3% Triton X-100 in PBS for 5 minutes followed by an additional three washes in 1×PBS. Coverslips were blocked in 3% BSA/0.1% Triton X-100 in PBS for 1 hour and then placed in primary anti-rabbit phosphoH2Ax antibody (1:200, Cell Signaling) overnight at 4° C. The next morning, cells were washed three times in 1×PBS and treated with blocking solution, 3% BSA/0.1% Triton X-100 in PBS, for 30 minutes before being placed in secondary anti-rabbit Alexa Fluor 647 (1:1000 Jackson Immuno) for 1 hour at RT. After three subsequent 1×PBS washes, coverslips were mounted using ProLong Gold antifade reagent with DAPI (Invitrogen). All immunofluorescence images were taken on a Zeiss ApoTome2 on Axiolmager and analyzed using Zeiss software. Mean intensity of the Alexa Fluor 647 signal was measured after imposing DAPI masks over the nucleus of each cell. All cells within a 20× image, was analyzed (˜3000 cells/condition).
Cell are stained for DAPI and γH2AX. Scale bar indicates 50 μm. FIG. 2B) Quantification of panel a. […] Error bars represent SEM. […] Error bars represent SEM. […] Error bars represent SEM.

With “(S)-4-(difluoro(3-(6-methyl-3-(trifluoromethyl)-5,6,7,8-tetrahydro-[1,2,4]triazolo[4,3-a]pyrazine-7-carbonyl)phenyl)methyl)phthalazin-1(2H)-one [AZ0108]”, the “D770A PARP-1's affinity for DNA” value at D770A PARP-1 (5 μM inhibitor) is reported as “nor did it change”. Besides, at D770A PARP-1 (25 μM compound), the “exchange of the D770A PARP-1:labled DNA with unlabeled DNA” value is “did not impact”. In addition, the “pan-nuclear γH2AX induction” value in assay [1] (HEK 293T cells, 18 hours) is listed as “dose-dependent increase”. Moreover, in assay [1] (HEK293 control vs PARP-1 KO cells, 3 μM AZ0108), the “dependence of pan-nuclear γH2AX signal on PARP-1” value was “dependent on the presence of PARP-1”.
